Data on 14 molecules can be found in patent EP0500426A1, “2,6-Dimethyl-4-(4'-hydroxy-3',5'-di-t-butylphenyl)-1,4-dihydropyridine derivatives, process for their preparation and their use as free radical scavengers” (Instituto de Investigacion Y Desarrollo Quimico-Biologico …, priority 1991, dated 1992).

Assay [1] relates to membrane hépatique du rat. As to the kind of experiment: Free radical scavenging in rat liver membranes: lipid peroxidation induced by Fe++/ascorbic acid, thiobarbituric acid-reactive substances. Type of assay: biochemical. The conditions noted are these: 45 minutes at 37°C, substances reacting with ATB, read-out: CI50 (the source's name). The method, then: Les composés de la présente invention ont fait l'objet d'un essai de contrôle de leur aptitude à capter les radicaux libres engendrés par la membrane hépatique du rat stimulée par du Fe++/acide ascorbique (système connu pour induire une formation de radicaux libres).
1.- Activité de captage des radicaux libres dans la membrane hépatique du rat.
On a préparé des homogènats de foie de rat (1/10 p/v) dans du Ringer-Tris (50mM)-saccharose ([…]) de pH 7,4, après sacrifice de rats Wistar au moyen de CO2. On a découpé les foies en petits morceaux (1 à 2 mm) et on les a homogénéisés à 0°C dans un homogénéisateur Polytron. On a centrifugé les homogénats à 1000 x g pendant 10 minutes à 4°C et rejeté le culot. On a centrifugé le surnageant à 10 000 x g pendant 20 minutes et recueilli le culot, puis on l'a remis en suspension, dans le rapport 1/10, dans du Ringer-Tris (50 mM). On a utilisé des échantillons de la préparation immédiatement et on en a conservé à -20°C. […] Après 45 minutes à 37°C, on a ajouté 1 ml d'une solution contenant 0,5% d'acide thiobarbiturique (ATB) dans de l'acide trichloroacétique (ATC) à 20% dans chaque tube et après 15 minutes d'incubation à 95°C, on a déterminé par spectrophotométrie les substances réagissant avec l' A TB. On a réalisé pour toutes les expériences des témoins appropriés exempts du médicament.

For assay [2], the system named is neutrophiles humains. As to the kind of experiment: Free radical production by FMLPA-stimulated human neutrophils (cytochrome C reduction). Type of assay: cell-based. Conditions: Neutrophil, reduced cytochrome C at 550 nm, read-out: CI50 (the source's name). An excerpt:
(§1) Les composés de la présente invention ont fait l'objet d'un essai de contrôle de leur aptitude à capter les radicaux libres engendrés par la membrane hépatique du rat stimulée par du Fe++/acide ascorbique (système connu pour induire une formation de radicaux libres). Les composés les plus actifs ont fait ensuite l'objet d'essais de contrôle de leur aptitude à inhiber la formation des radicaux libres par les neutrophiles humains stimulés par la N-formyl-L-méthionyl-L-leucyl-L-phénylalanine et à protéger le tissu hépatique, entretenu en culture, contre les lésions par ischémie/reperfusion.
2.- Dosage des radicaux libres dans les polymorphonucléaires.
On a isolé des neutrophiles humains chez des donneurs volontaires bien portants par centrifugation sur gradient dans du Ficol Hypaque (Pharmacia). On a mélangé 100 µl de suspension de cellules (nombre final 500 000 cellules) avec 700 µl de solution physiologique tamponnée au phosphate et 50 µl des composés expérimentaux en solution dans du DMSO. On a utilisé comme témoin positif 25 µl d'une solution à 1 mg par ml de superoxyde dismutase dans du DMSO (à savoir 25 µg de SOD). On a préincubé les tubes à 37°C pendant 10 minutes sous agitation lente.
On a stimulé les neutrophiles par addition de 100 µl de cytochrome C type VI (1 mM) (Sigma) dans de la solution physiologique tamponnée au phosphate, de 50 µl de N-formyl-L-méthionyl-L-leucyl-L-phénylalanine (FMPLA) (10 µM) (Sigma F 3506) et par incubation pendant 5 minutes à 37°C. Après refroidissement à 0°C pour arrêter la réaction, on a centrifugé les tubes à 8000 xg et on a déterminé par spectrophotométrie à 550 nm le cytochrome C réduit, en utilisant des tubes contenant du SOD comme témoins.

For assay [3], the system named is tissu hépatique. Nature of the assay: Ischemia/reperfusion in short-term organ culture of rat liver, malonaldehyde by thiobarbituric acid reaction. Type of assay: cell-based, rats Wistar. Conditions: 1 h, concentration inhibiting malonaldehyde production by 50%, 60 minutes ischemic anoxia, 60 minutes reoxygenation, read-out: CI50 (the source's name).
Text: as §1
3.- Ischémie/reperfusion dans une culture d'organe à court terme.
Pour ces études, on a prélevé des échantillons de tissu dans des groupes de 10 rats Wistar mâles anesthésiés au pentobarbital sodique (60 mg par kg, i.p.). On a isolé les foies et on les a divisés en cinq échantillons d'environ 0,4 g qu'on a pesés et transférés dans des fioles d'Erlenmeyer de 50 ml bouchées contenant de la solution de Tris-Ringer saturée d'argon (anoxique).
On a purgé à l'argon les fioles d'Erlenmeyer de 50 ml contenant les échantillons du tissu et 3,9 ml de tampon de Tris-Ringer traité à l'argon, on les a rebouchées et on les a conservées au bain-marie à 37°C sans agitation pendant 50 minutes pour provoquer l'ischémie. La subdivision du tissu et l'agitation ont été évitées à ce stade pour réduire au minimum la diffusion des métabolites depuis le tissu jusque dans le milieu, qui n'aurait pu se faire au cours d'une ischémie in vivo.
Division du tissu et addition du médicament.
Après 50 minutes d'ischémie, on a divisé les tissus avec des ciseaux d'ophtalmologie en fragments d'environ 1 mm de côté. Du fait que l'argon est plus dense que l'air, son déplacement hors de la fiole et son remplacement par l'oxygène sont restés minimaux pendant le découpage et l'addition ultérieure du médicament. Ensuite, on a ajouté 0,1 ml de tampon de Tris-Ringer contenant l'un des composés à évaluer ou de l'hydroxy- toluène butylé (HTB), pour arriver à la concentration finale souhaitée; on a sélectionné l'hydroxytoluène butylé du fait que c'est un antioxydant classique qui gêne la propagation en chaîne des radicaux. On a procédé à ces additions avec rapidité pour éviter d'introduire de l'oxygène. On a rebouché les fioles et on les a secouées modérément pour mélanger le tissu avec le médicament, puis on les a remises au bain-marie pendant 10 minutes pour la mise a l'équilibre avant la réoxygénation.
Après 60 minutes d'anoxie ischémique, on a réoxygéné les fioles par barbotage vif d'oxygène gazeux à 100% dans les échantillons pendant 1 minute et par purge de la phase gazeuse avec de l'oxygène (de l'argon remplaçant l'oxygène à ce stade dans les expériences témoins d'ischémie sans réoxygénation). […]

Assay [4] relates to radicaux libres. As to the kind of experiment: Free radical scavenger activity (test not specified).
Assay [5] has as its system canaux calciques. Conditions: see Spanish patent n°531.033; cited from earlier work.

pIC50: −log10 of the molar value.

In the case of `CCOC(=O)C1=C(C)NC(C)=C(C(=O)OCC(O)CO)C1c1cc(C(C)(C)C)c(O)c(C(C)(C)C)c1` (centres unmarked) [Exemple 5, 2,6-diméthyl-4-(4'-hydroxy-3',5'-di-t-butyl-phényl)-1,4-dihydropyridine-3,5-dicarboxylate d'éthyle etde 2,3-dihydroxypropyle], the pIC50 in assay [1] was 4.30.

Consider `CCOC(=O)C1=C(C)NC(C)=C(C(=O)OCCN(C)Cc2ccccc2)C1c1cc(C(C)(C)C)c(O)c(C(C)(C)C)c1` (centres unmarked) [Exemple 6, chlorhydratede 2,6-diméthyl-4-(4'-hydroxy-3',5'-di-t-butylphényl)-1,4-dihydropyridine-3,5-dicarboxylate d'éthyle etde 2-(N-méthyl-N-benzylamino)éthyle], for which, in assay [1], the pIC50 is 4.70.

Consider `CCOC(=O)C1=C(C)NC(C)=C(C(=O)OCC2COC(C)(C)O2)C1c1cc(C(C)(C)C)c(O)c(C(C)(C)C)c1` (centres unmarked) [Exemple 4, 2,6-diméthyl-4-(4'-hydroxy-3',5'-di-t-butylphényl)-1,4-dihydropyridine-3,5-dicarboxylate d'éthyle etde (2,2-diméthyl-1,3-dioxolan-4-yl)méthyle], for which the pIC50 in assay [1] was 5.90.

Regarding `CCOC(=O)C1=C(C)NC(C)=C(C(=O)O)C1c1cc(C(C)(C)C)c(O)c(C(C)(C)C)c1` (centres unmarked) [Exemple 9, 2,6-diméthyl-4-(4'-hydroxy-3',5'-di-t-butylphényl)-5-carbéthoxy-3-carboxy-1,4-dihydropyridine], the pIC50 in assay [1] was 5.60.

With `CCOC(=O)C1=C(C)NC(C)=C(C(=O)OC(C)C)C1c1cc(C(C)(C)C)c(O)c(C(C)(C)C)c1` (centres unmarked) [Exemple 2, 2,6-diméthyl-4-(4'-hydroxy-3',5'-di-t-butylphényl)-1,4-dihydropyridine-3,5-dicarboxylate d'éthyle et d'isopropyle], the pIC50 in assay [1] was 6.54; in assay [2] it was 4.99; in assay [3], 6.70.

On to `CC1=C(C(=O)OCC(C)C)C(c2cc(C(C)(C)C)c(O)c(C(C)(C)C)c2)C(C(=O)OCC(C)C)=C(C)N1` [Exemple 11, 2,6-diméthyl-4-(4'-hydroxy-3',5'-di-t-butylphényl)-1,4-dihydropyridine-3,5-dicarboxylatede diisobutyle], for which the pIC50 in assay [1] was 6.00.

Regarding `CCOC(=O)C1=C(C)NC(C)=C(C(=O)OCC(C)C)C1c1cc(C(C)(C)C)c(O)c(C(C)(C)C)c1` (centres unmarked) [Exemple 10, 2,6-diméthyl-4-(4'-hydroxy-3',5'-di-t-butylphényl)-1,4-dihydropyridine-3,5-dicarboxylate d'éthyle et d'isobutyle], the pIC50 is 6.43 in assay [1], 4.98 in assay [2] and 6.70 in assay [3].

For the molecule `CCOC(=O)C1=C(C)NC(C)=C(C(=O)OCc2ccccc2)C1c1cc(C(C)(C)C)c(O)c(C(C)(C)C)c1` (centres unmarked) [Exemple 8, 2,6-diméthyl-4-(4'-hydroxy-3',5'-di-t-butylphényl)-1,4-dihydropyridine-3,5-dicarboxylate d'éthyle etde benzyle], in assay [1], the pIC50 was 6.00.

Turning to `Cc1cc(C(C)(C)C)c(O)c(C(C)(C)C)c1` [HTB, hydroxytoluène butylé, reference compound], the pIC50 in assay [1] is 5.82; in assay [2] it was 4.70; in assay [3], 5.76.

In the case of `Cc1c(C)c2c(c(C)c1O)CCC(C)(CCCC(C)CCCC(C)CCCC(C)C)O2` (stereo not drawn) [α-Tocophérol, reference compound], the pIC50 in assay [1] is 4.82.

Regarding `CCOC(=O)C1=C(C)NC(C)=C(C(=O)OC)C1c1cc(OC)c(O)c(OC)c1` (centres unmarked), the “activité comme capteur de radicaux libres” value in assay [4] was “intéressante activité”. In addition, in assay [5], the “activité de blocage des canaux calciques” value was “pratiquement exempt”.

For `COC(=O)C1=C(C)NC(C)=C(C(=O)OC)C1c1cc(C(C)(C)C)c(O)c(C(C)(C)C)c1` [Exemple 3, 2,6-Diméthyl-4-(4'-hydroxy-3',5'-di-t-butylphényl)-1,4-dihydropyridine-3,5-dicarboxylatede diméthyle], the pIC50 in assay [1] is 5.90.

Turning to `CCOC(=O)C1=C(C)NC(C)=C(C(=O)OCCNC)C1c1cc(C(C)(C)C)c(O)c(C(C)(C)C)c1` (centres unmarked) [Exemple 7, chlorhydratede 2,6-diméthyl-4-(4'-hydroxy-3',5'-di-t-butylphényl)-1,4-dihydropyridine-3,5-dicarboxylate d'éthyle etde 2-(méthylamino)éthyle], the pIC50 in assay [1] was 5.60.

Regarding `CCOC(=O)C1=C(C)NC(C)=C(C(=O)OC)C1c1cc(C(C)(C)C)c(O)c(C(C)(C)C)c1` (centres unmarked) [Exemple 1, 2,6-Diméthyl-4-(4'-hydroxy-3',5'-di-t-butylphényl)-1,4-dihydropyridine-3,5-dicarboxylatede méthyle et d'éthyle], the pIC50 is 6.11 in assay [1], 4.96 in assay [2] and 6.77 in assay [3].
